Test results: paper PMC9504842, “Comprehensive Metabolic Profiling of Euphorbiasteroid in Rats by Integrating UPLC-Q/TOF-MS and NMR as Well as Microbial Biotransformation” (Metabolites, 2022)

Assays:
[1] = system: SH-SY5Y neuroblastoma cells; test: CCK-8 cell cytotoxicity assay, SH-SY5Y; assay type: cell-based; details: Homo sapiens, 72 h, read-out: IC50 (μM) SH-SY5Y
Method: (§1) Cell cytotoxicity was determined by the CCK-8 assay. Four strains of human cells (SH-SY5Y) were seeded in 96-well plates at a density of 3 × 10^3 cells/well under 37 °C and 5% CO2 for 12 h and subsequently treated with the test sample solution (euphorbiasteroid and its metabolites, 10 μL) for 72 h. After treatment, each well with 10 μL CCK-8 reagent was incubated for 1–2 h in the incubator. Afterwards, the optical OD-value was measured at 450 nm through a microplate reader. Three multiple wells were set as parallel experimental groups.
(§2) Euphorbiasteroid and its metabolites were tested for their cytotoxicity on human cell lines SH-SY5Y, LO2, AC-16, and HK-2 by the CCK-8 assay. […] Therefore, considering the high content of euphorbiasteroid in Euphorbiae semen, it was speculated that the metabolites from hydroxylation and hydrolysis might be the potential toxic constituents of Euphorbiae semen.

LO2 cells = test: CCK-8 cell cytotoxicity assay, LO2; assay type: cell-based; details: Homo sapiens, L02, 72 h, read-out: IC50 (μM) LO2
Method: as §1, §2

AC-16 cells = test: CCK-8 cell cytotoxicity assay, AC-16; assay type: cell-based; details: Homo sapiens, 72 h, read-out: IC50 (μM) AC-16
Method: as §1, §2

HK-2 cells = test: CCK-8 cell cytotoxicity assay, HK-2; assay type: cell-based; details: Homo sapiens, HK-2, 72 h, read-out: IC50 (μM) HK-2
Method: as §1, §2

[2] = Metabolite detection in rats (plasma, urine, feces) after oral euphorbiasteroid by UPLC-Q/TOF-MS; assay type: in vivo, Sprague-Dawley rats; details: single oral dose 100 mg/kg euphorbiasteroid
Method: For metabolite separation and detection, chromatographic analyses were performed using a Waters Acquity UPLC I-class system (Waters, Milford, MA, USA), equipped with an auto-sampler, a binary solvent delivery system, an online degasser, and a photodiode array detector. An ACQUITY UPLC® HSS T3 column (2.1 × 150 mm, 1.8 μm, Waters) protected with a HSS T3 VanGuard ™ Pre-Column 3/Pk (2.1 × 5.0 mm, 1.8 μm, Waters) was used. The optimized parameters were set as follows: the mobile phase consisted of eluent A (0.1% formic acid in water, v/v) and eluent B (acetonitrile). The flow rate was 0.3 mL/min. The column and auto-sampler temperatures were maintained at 40 °C and 4 °C, respectively. The gradient elution program was optimized as follows: 0–9 min, 30–70% B; 9–13 min, 70–90% B; 13–17 min, 90–100% B; 17–20 min, 100–100% B.
The mass spectrometry detection was performed on the SYNAPT G2-Si HDMS system, equipped with an electrospray ionization (ESI) source (Waters Corp., Manchester, UK). A positive ion mode was conducted in this analysis. Mass spectrometry conditions were finally set as follows: capillary voltage of 3.0 kV, cone voltage of 40 V, source temperature of 120 °C, and de-solvation temperature of 400 °C. Nitrogen was used as the desolvation and cone gas with a flow rate of 800 and 50 L/h, respectively, and the full-scan mass range was set as m/z 50–1500 Da. In the auto mass spectrometry mode, the collision-induced dissociation energies were set at 0 eV for the precursor ion at the low-energy mode, and the collision-induced dissociation energies were set from 2 to 10 eV for the high-energy mode. Real-time data were calibrated using an external reference (LockSpray™) at a concentration of 0.2 ng/mL with an infusion flow rate of 5 μL/min, generating a reference ion for the positive ion mode (m/z 556.2771) during the UPLC-MS analysis. Data were acquired and processed using MassLynx ™ NT 4.1 software (Waters, Milford, MA, USA).
Male Sprague-Dawley rats (200–220 g) were commercially supplied by Shanghai Sippr-BK Laboratory Animal Co., Ltd. (Shanghai, China) and were housed in a humidity- and temperature-controlled room (50 ± 10% and 22–24 °C) with a 12-h light/dark cycle. The experimental rats were allowed to access food and water ad libitum and acclimatized to the conditions mentioned above for a week, then fasted overnight but with free access to water before the experiments. Euphorbiasteroid was dissolved in soybean oil solution (containing 0.5% ethanol) to form a concentration of 10 mg/mL. A single dose of 100 mg/kg euphorbiasteroid was orally administered to rats and the same concentration of soybean oil solution (containing 0.5% ethanol) was administered as a blank control. All animal procedures were performed in accordance with the Guidelines for Care and Use of Laboratory Animals of Naval Medical University and approved by the Animal Ethics Committee of Naval Medical University.
Blood samples (0.5 mL) were collected from six rats through the orbital sinus before administration (blank sample) and 0.25, 0.5, 1, 2, 4, 6, and 12 h after administration. Plasma samples were prepared by centrifugation at 4000 rpm for 10 min. For urine and feces sampling, 12 rats were divided into an administration group and a blank group, and were placed separately in stainless steel metabolic cages. Urine and feces samples were collected in containers surrounded by ice over 0–6, 6–12, and 12–24 h after drug administration. The mixed urine samples were centrifuged at 4000 rpm for 10 min at 4 °C to obtain the supernatants, and fecal samples were left in a cool and dry place until dry. All the biological samples were frozen at −80 °C before analysis.
An aliquot of 200 µL of plasma and urine samples was put in a 1.5 mL tube, respectively. 800 µL of acetonitrile was added and vortexed for 5 min to extract metabolites. Feces samples (1.0 g) were crushed and then ultrasonically extracted with acetonitrile (10 mL) for 30 min. […]

[3] = In vitro incubation of euphorbiasteroid with rat liver microsomes, metabolite detection; assay type: in vitro ADME; details: 37 °C, 1 h, NADPH regenerating system
Method: The microsomal incubation approach was based on previous metabolism studies published by Wintermeyer et al. and Franziska et al.. A 200 μL incubation system containing 10 μL of solution A, 2 μL of solution B, 5 μL of rat liver microsomes (20 mg/mL) and 182 μL 0.1 M PBS buffer (pH = 7.4) was constructed. The above solution was heated in a 37 °C water bath, then 1 μL of euphorbiasteroid (dissolved in DMSO solution, 10 mM) was used to start the reaction, and the mixture was then incubated at 37 °C for 1 h. The reactions were terminated by the addition of 200 μL of ice-cold acetonitrile. The mixture was then centrifuged at 13,000 rpm for 10 min, and a 2-μL aliquot of the supernatant was directly injected into the UPLC-Q-TOF-MS system.
(§3) First, the metabolites of euphorbiasteroid in rats (plasma, urine, and feces), RLMs, and C. elegans culture medium were predicted by setting the prototype components and potential biological metabolic reactions in UNIFI 4.1 software. Then, the predicted metabolites in each sample were further compared according to the characteristic mass spectrum behaviors (including parent ions, internal cleavage in the ion source, and characteristic fragment ions of each metabolite) and retention times.

[4] = system: Cunninghamella elegans bio-110930; test: Microbial transformation of euphorbiasteroid, metabolite detection; details: C. elegans bio-110930 culture with euphorbiasteroid
Method: The biotransformation process was conducted at two scales: preliminary screening and preparative. Preliminary screening scale biotransformation of euphorbiasteroid was carried out in 250 mL Erlenmeyer flasks containing 100 mL of liquid medium. The flasks were placed on a rotary shaker (160 rpm, 28 °C). A standard two-stage fermentation protocol was employed in all experiments. After 2 days of pre-culture, the substrates of 5 mg (dissolved in 0.5 mL of acetone) were added into each flask. Taking 1 mL samples on days 0, 2, 4, 7, 10, and 14, samples were centrifuged and the degree of transformation was compared to controls on TLC and HPLC, and a 2-μL aliquot of the supernatant was directly injected into the UPLC-Q-TOF-MS system. Culture controls consisted of sterile medium, in which microorganisms were grown under identical conditions without substrate. Substrate controls were composed of sterile medium and the same amount of substrate incubated under the same conditions without microorganisms.
as §3

CC(=O)OC1C2C(OC(=O)Cc3ccccc3)C(C)CC2(OC(C)=O)C(=O)C(C)=CC2C(CCC13CO3)C2(C)C (centres unmarked) [Compound M0, Euphorbiasteroid]
IC50 [1]: 55 ± 1.2 µM
IC50 (LO2 cells): > 100 µM
IC50 (AC-16 cells): 97.7 ± 2.13 µM
IC50 (HK-2 cells): > 100 µM

CC(=O)OC1C2C(OC(=O)Cc3ccccc3)C(C)CC2(OC(C)=O)C(=O)C(C)=CC2C(CCC13CO3)C2(C)CO (stereo not drawn) [Compound M1, 18α-hydroxyl euphorbiasteroid]
Distribution Rat Faeces (metabolite detected) [2]: √
Distribution Rat Plasma (metabolite detected) [2]: √
Distribution Rat Urine (metabolite detected) [2]: √
Distribution RLMs (metabolite detected) [3]: √
Distribution Fungi (metabolite detected) [4]: √

CC(=O)OC1C2C(OC(=O)Cc3ccc(O)cc3)C(C)CC2(OC(C)=O)C(=O)C(C)=CC2C(CCC13CO3)C2(C)C (centres unmarked) [Compound M2, 4′-hydroxyl euphorbiasteroid]
Distribution Rat Faeces (metabolite detected) [2]: √
Distribution Rat Urine (metabolite detected) [2]: √
Distribution RLMs (metabolite detected) [3]: √
Distribution Fungi (metabolite detected) [4]: √

CC(=O)OC1C2C(OC(=O)C(O)c3ccccc3)C(C)CC2(OC(C)=O)C(=O)C(C)=CC2C(CCC13CO3)C2(C)C (centres unmarked) [Compound M4, 7′-hydroxyl euphorbiasteroid]
Distribution Rat Faeces (metabolite detected) [2]: √
Distribution Rat Plasma (metabolite detected) [2]: √
Distribution Rat Urine (metabolite detected) [2]: √
Distribution RLMs (metabolite detected) [3]: √
Distribution Fungi (metabolite detected) [4]: √

CC(=O)OC1C2C(OC(=O)Cc3ccccc3O)C(C)CC2(OC(C)=O)C(=O)C(C)=CC2C(CCC13CO3)C2(C)C (centres unmarked) [Compound M5, 2′-hydroxyl euphorbiasteroid]
Distribution Rat Faeces (metabolite detected) [2]: √
Distribution Rat Plasma (metabolite detected) [2]: √
Distribution RLMs (metabolite detected) [3]: √
Distribution Fungi (metabolite detected) [4]: √

CC(=O)OC1C2C(OC(=O)Cc3ccccc3)C(CO)CC2(OC(C)=O)C(=O)C(C)=CC2C(CCC13CO3)C2(C)C (centres unmarked) [Compound M6]
Distribution Rat Faeces (metabolite detected) [2]: √
Distribution Rat Plasma (metabolite detected) [2]: √
Distribution RLMs (metabolite detected) [3]: √

CC(=O)OC1C2C(OC(=O)Cc3ccccc3O)C(C)CC2(OC(C)=O)C(=O)C(C)=CC2C(CCC13CO3)C2(C)CO (stereo not drawn) [Compound M8, 18α,2′-dihydroxyl euphorbiasteroid]
Distribution Rat Faeces (metabolite detected) [2]: √
Distribution Rat Plasma (metabolite detected) [2]: √
Distribution Rat Urine (metabolite detected) [2]: √
Distribution RLMs (metabolite detected) [3]: √
Distribution Fungi (metabolite detected) [4]: √

CC(=O)OC1C2C(OC(=O)CC3=CC=CC(O)C3O)C(C)CC2(OC(C)=O)C(=O)C(C)=CC2C(CCC13CO3)C2(C)C (centres unmarked) [Compound M12, 5′,6′-dihydroxyl dihydroeuphorbiasteroid]
Distribution Rat Faeces (metabolite detected) [2]: √
Distribution Rat Plasma (metabolite detected) [2]: √
Distribution RLMs (metabolite detected) [3]: √
Distribution Fungi (metabolite detected) [4]: √

CC(=O)OC1C2C(OC(=O)CC3=CC(O)C(O)C=C3)C(C)CC2(OC(C)=O)C(=O)C(C)=CC2C(CCC13CO3)C2(C)C (centres unmarked) [Compound M13, 3′,4′-dihydroxyl dihydroeuphorbiasteroid]
Distribution Rat Faeces (metabolite detected) [2]: √
Distribution Rat Plasma (metabolite detected) [2]: √
Distribution RLMs (metabolite detected) [3]: √
Distribution Fungi (metabolite detected) [4]: √

CC(=O)OC1C2C(OC(=O)Cc3ccccc3)C(C=O)CC2(OC(C)=O)C(=O)C(C)=CC2C(CCC13CO3)C2(C)C (centres unmarked) [Compound M14]
Distribution Rat Faeces (metabolite detected) [2]: √
Distribution Rat Plasma (metabolite detected) [2]: √
Distribution Rat Urine (metabolite detected) [2]: √
Distribution Fungi (metabolite detected) [4]: √

CC(=O)OC1C2C(OC(=O)Cc3ccccc3)C(C=O)CC2(OC(C)=O)C(=O)C(C)=CC2C(CCC13CO3)C2(C)C (centres unmarked) [Compound M15]
Distribution Rat Faeces (metabolite detected) [2]: √
Distribution Rat Plasma (metabolite detected) [2]: √
Distribution Rat Urine (metabolite detected) [2]: √

CC(=O)OC1C2C(OC(=O)Cc3ccccc3)C(C)CC2(OC(C)=O)C(=O)C(C)=CC2C(CCC13CO3)C2(C)C(=O)O (stereo not drawn) [Compound M16, 18α-carboxyl euphorbiasteroid]
Distribution Rat Faeces (metabolite detected) [2]: √
Distribution Rat Plasma (metabolite detected) [2]: √
Distribution Rat Urine (metabolite detected) [2]: √
Distribution RLMs (metabolite detected) [3]: √
Distribution Fungi (metabolite detected) [4]: √

CC(=O)OC1C2C(OC(=O)Cc3ccccc3)C(C(=O)O)CC2(OC(C)=O)C(=O)C(C)=CC2C(CCC13CO3)C2(C)C (centres unmarked) [Compound M17]
Distribution Rat Faeces (metabolite detected) [2]: √
Distribution Rat Plasma (metabolite detected) [2]: √
Distribution RLMs (metabolite detected) [3]: √
Distribution Fungi (metabolite detected) [4]: √

CC(=O)O[C@H]1[C@H]2[C@@H](OC(=O)Cc3ccccc3O[C@@H]3O[C@H](CO)[C@@H](O)[C@H](O)[C@H]3O)[C@@H](C)C[C@]2(OC(C)=O)C(=O)/C(C)=C/C2C(CC[C@@]13CO3)C2(C)C (some centres unmarked) [Compound M28]
Distribution Rat Faeces (metabolite detected) [2]: √

euphorbiasteroid 2′-O-β-D-glucopyranoside [Compound M29]
Distribution Fungi (metabolite detected) [4]: √
